Assays:
SYK kinase = target: T1, SYK kinase (Homo sapiens, UniProt P43405); assay: SYK Assay (OMNIA KINASE ASSAY, SOX peptide fluorescence); assay type: biochemical; settings: apparent Ki calculated from the IC50 using the Cheng-Prusoff equation; 1 mM ATP, 30° C.; read-out: SYK Activities: Ki
T1 construct: purchased Invitrogen, Carlsbad
Summary of the method: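 Continuous Omnia assay: SYK phosphorylation of SOX-labelled Tyr 7 peptide (10 µM) with 1 mM ATP and 0.2 mM DTT at 30 °C. Fluorescence (ex 360/em 485 nm) read every 30 s for 30 min. Reaction velocity versus inhibitor concentration gives IC50, converted to apparent Ki by Cheng-Prusoff.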

LRRK2 = LRRK2 (Homo sapiens, UniProt Q5S007); assay: LRRK2-LRRK2 G2019S-Assay (LanthaScreen Eu Kinase Binding Assay); settings: 5 nM LRRK2 or their mutants, 10 nM tracer 236, RT 1 h; read-out: LRRK2 Activities: IC50
Chain of LRRK2 (Q5S007 970-2527 limits assumed): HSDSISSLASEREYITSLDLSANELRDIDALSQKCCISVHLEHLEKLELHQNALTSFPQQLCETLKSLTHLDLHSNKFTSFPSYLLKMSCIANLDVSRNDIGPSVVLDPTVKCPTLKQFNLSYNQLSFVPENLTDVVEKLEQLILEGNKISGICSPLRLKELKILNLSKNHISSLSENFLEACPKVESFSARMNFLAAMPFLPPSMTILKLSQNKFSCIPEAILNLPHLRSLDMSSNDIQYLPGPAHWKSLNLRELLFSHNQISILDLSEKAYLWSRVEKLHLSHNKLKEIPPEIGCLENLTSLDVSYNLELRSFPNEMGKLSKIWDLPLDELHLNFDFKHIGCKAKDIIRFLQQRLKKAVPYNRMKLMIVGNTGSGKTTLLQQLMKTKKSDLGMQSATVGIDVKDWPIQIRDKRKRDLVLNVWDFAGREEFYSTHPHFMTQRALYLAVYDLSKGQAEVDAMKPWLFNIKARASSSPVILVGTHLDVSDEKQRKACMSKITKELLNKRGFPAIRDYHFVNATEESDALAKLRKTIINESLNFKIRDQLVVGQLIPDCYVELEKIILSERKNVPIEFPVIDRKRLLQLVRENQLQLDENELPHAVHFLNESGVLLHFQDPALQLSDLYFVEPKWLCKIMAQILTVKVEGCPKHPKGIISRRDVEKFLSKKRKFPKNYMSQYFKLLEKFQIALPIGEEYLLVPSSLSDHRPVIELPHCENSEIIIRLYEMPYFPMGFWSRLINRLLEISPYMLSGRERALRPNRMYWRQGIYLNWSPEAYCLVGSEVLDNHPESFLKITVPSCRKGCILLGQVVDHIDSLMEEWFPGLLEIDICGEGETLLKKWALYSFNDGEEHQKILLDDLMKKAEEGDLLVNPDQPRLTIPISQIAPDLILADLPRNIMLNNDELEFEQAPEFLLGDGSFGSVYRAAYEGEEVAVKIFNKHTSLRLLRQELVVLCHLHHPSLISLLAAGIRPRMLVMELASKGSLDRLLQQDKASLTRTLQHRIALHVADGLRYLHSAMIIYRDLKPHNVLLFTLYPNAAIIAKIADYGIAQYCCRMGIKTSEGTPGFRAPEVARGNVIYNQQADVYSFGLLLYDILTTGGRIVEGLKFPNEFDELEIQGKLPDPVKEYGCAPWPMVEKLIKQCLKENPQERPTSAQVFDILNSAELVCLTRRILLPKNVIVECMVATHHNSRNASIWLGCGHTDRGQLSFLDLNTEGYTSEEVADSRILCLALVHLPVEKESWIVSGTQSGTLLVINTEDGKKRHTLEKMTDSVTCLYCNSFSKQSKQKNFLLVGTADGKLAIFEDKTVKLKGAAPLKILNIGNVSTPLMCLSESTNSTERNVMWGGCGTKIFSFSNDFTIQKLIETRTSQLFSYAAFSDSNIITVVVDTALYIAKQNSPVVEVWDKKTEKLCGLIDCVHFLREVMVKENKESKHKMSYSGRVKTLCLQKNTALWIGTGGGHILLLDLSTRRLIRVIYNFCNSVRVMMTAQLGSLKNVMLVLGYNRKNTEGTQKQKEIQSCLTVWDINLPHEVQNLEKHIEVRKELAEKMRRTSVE
Description: In the assay LanthaScreen™ Eu Kinase Binding Assay by Invitrogen Corporation (Carlsbad) the effect of invention of a compound on the phosphorylation is determined by measurement of fluorescence intensity emission ratio based on the binding and displacement of a proprietary, Alexa Fluor® 647-labeled, ATP-competitive kinase inhibitor scaffold (kinase tracer) to the kinase of interest. Binding of the tracer to the kinase is detected using a europium-labeled anti-tag antibody, which binds to the kinase of interest. Simultaneous binding of both the tracer and antibody to the kinase results in a high degree of FRET (fluorescence resonance energy transfer) from the europium (Eu) donor fluorophore to the Alexa Fluor® 647 acceptor fluorophore on the kinase tracer. Binding of an inhibitor to the kinase competes for binding with the tracer, resulting in a loss of FRET. The fluorescence intensity ratio is directly proportional to the amount of peptide phosphorylation.
To the wells of an 384 well small volume plate (Greiner, Frickenhausen) are added (i) the compound under test in 5% DMSO/distilled water (5 μl), (ii) 5 μl of the kinase antibody mixture resulting in a final concentration 5 nM LRRK2 or their mutants, 2 nM EU-Anti-GST antibody in 1× kinase buffer A. The reaction was started with addition of (iii) 5 μl resulting in a final concentration of 10 nM tracer 236. The assay plate was incubated at RT for 1 h and fluorescence intensitiy readings were collected using a TECAN M1000 at two wavelengthes of λex 340/λem 615 nm and λex 340/λm 665 nm with a delay time of 100 μs and an integration time of 200 μs after 60 minutes. The emission ratio was calculated by division of the acceptor/tracer emission ([…]) by the antibody/donor emission ([…]). The inhibitor concentration was plotted versus the emission ratio to determine the IC50 using XLFit 5.0 (IDBS, Guildford) to fit to a sigmoidal dose response curve with a variable slope.

SMILES | Ki (SYK kinase) | IC50 (LRRK2)
COc1ccccc1-c1nc(Nc2ccc3c(c2)NCCO3)c2[nH]ncc2n1 [Example #110, N-(5-(2-methoxyphenyl)-1H-pyrazolo[4,3-d]pyrimidin-7-yl)-3,4-dihydro-2H-benzo[b][1,4]oxazin-6-amine] | 10 to 100 nM | 100 to 1000 nM
COc1ccccc1-c1nc(Nc2ccc3cn[nH]c3c2)c2[nH]ncc2n1 [Example #111, N-(1H-indazol-6-yl)-5-(2-methoxyphenyl)-1H-pyrazolo[4,3-d]pyrimidin-7-amine] | 10 to 100 nM | 100 to 1000 nM
CCN1CCN(c2ccc(Nc3nc(-c4ccccc4)nc4cn[nH]c34)cc2)CC1 [Example #119, N-(4-(4-ethylpiperazin-1-yl)phenyl)-5-phenyl-1H-pyrazolo[4,3-d]pyrimidin-7-amine] | < 10 nM | 100 to 1000 nM
c1ccn2cc(-c3nc(Nc4ccc5[nH]ncc5c4)c4[nH]ncc4n3)nc2c1 [Example #126, 5-(imidazo[1,2-a]pyridin-2-yl)-N-(1H-indazol-5-yl)-1H-pyrazolo[4,3-d]pyrimidin-7-amine] | 10 to 100 nM | 100 to 1000 nM
O=C(c1ccc(Nc2nc(-c3cccs3)nc3cn[nH]c23)cc1)N1CCCC1 [Example #135, pyrrolidin-1-yl(4-((5-(thiophen-2-yl)-1H-pyrazolo[4,3-d]pyrimidin-7-yl)amino)phenyl)methanone] | 10 to 100 nM | < 10 nM
c1csc(-c2nc(Nc3ccc(N4CCSCC4)cc3)c3[nH]ncc3n2)c1 [Example #136, N-(4-thiomorpholinophenyl)-5-(thiophen-2-yl)-1H-pyrazolo[4,3-d]pyrimidin-7-amine] | 10 to 100 nM | 10 to 100 nM
O=S1(=O)CCN(c2ccc(Nc3nc(-c4cccs4)nc4cn[nH]c34)cc2)CC1 [Example #137, 4-(4-((5-(thiophen-2-yl)-1H-pyrazolo[4,3-d]pyrimidin-7-yl)amino)phenyl)thiomorpholine 1,1-dioxide] | < 10 nM | 10 to 100 nM
CN1CCN(c2ccc(Nc3nc(-c4cnc[nH]4)nc4cn[nH]c34)cc2)CC1 [Example #140, 5-(1H-imidazol-5-yl)-N-(4-(4-methylpiperazin-1-yl)phenyl)-1H-pyrazolo[4,3-d]pyrimidin-7-amine] | 10 to 100 nM | 100 to 1000 nM
O=C(c1ccc(Nc2nc(-c3ccsc3)nc3cn[nH]c23)cc1)N1CCCC1 [Example #142, pyrrolidin-1-yl(4-((5-(thiophen-3-yl)-1H-pyrazolo[4,3-d]pyrimidin-7-yl)amino)phenyl)methanone] | 10 to 100 nM | 100 to 1000 nM
c1cc(-c2nc(Nc3ccc(N4CCSCC4)cc3)c3[nH]ncc3n2)cs1 [Example #145, N-(4-thiomorpholinophenyl)-5-(thiophen-3-yl)-1H-pyrazolo[4,3-d]pyrimidin-7-amine] | 10 to 100 nM | 10 to 100 nM
O=C1COc2ccc(Nc3nc(-c4ccsc4)nc4cn[nH]c34)cc2N1 [Example #146, 6-((5-(thiophen-3-yl)-1H-pyrazolo[4,3-d]pyrimidin-7-yl)amino)-2H-benzo[b][1,4]oxazin-3(4H)-one] | 10 to 100 nM | 100 to 1000 nM
O=C(O)c1cccc(-c2nc(Nc3ccc(N4CCOCC4)cc3)c3[nH]ncc3n2)c1 [Example #156, 3-(7-((4-morpholinophenyl)amino)-1H-pyrazolo[4,3-d]pyrimidin-5-yl)benzoic acid] | 10 to 100 nM | 100 to 1000 nM
O=C(c1ccc(Nc2nc(-c3ccsc3)nc3cn[nH]c23)cc1)N1CCOCC1 [Example #157, morpholino(4-((5-(thiophen-3-yl)-1H-pyrazolo[4,3-d]pyrimidin-7-yl)amino)phenyl)methanone] | 10 to 100 nM | 100 to 1000 nM
O=C1CSc2ccc(Nc3nc(-c4ccsc4)nc4cn[nH]c34)cc2N1 [Example #158, 6-((5-(thiophen-3-yl)-1H-pyrazolo[4,3-d]pyrimidin-7-yl)amino)-2H-benzo[b][1,4]thiazin-3(4H)-one] | 10 to 100 nM | 10 to 100 nM
COc1ccc(-c2nc(Nc3ccc4c(c3)NC(=O)CC4)c3[nH]ncc3n2)cc1 [Example #159, 7-((5-(4-methoxyphenyl)-1H-pyrazolo[4,3-d]pyrimidin-7-yl)amino)-3,4-dihydroquinolin-2(1H)-one] | 10 to 100 nM | 100 to 1000 nM
O=C1COc2ccc(Nc3nc(-c4cccs4)nc4cn[nH]c34)cc2N1 [Example #162, 6-((5-(thiophen-2-yl)-1H-pyrazolo[4,3-d]pyrimidin-7-yl)amino)-2H-benzo[b][1,4]oxazin-3(4H)-one] | < 10 nM | 100 to 1000 nM
COc1ccc(-c2nc(Nc3ccc4c(c3)NC(=O)CCC4)c3[nH]ncc3n2)cc1 [Example #164, 8-((5-(4-methoxyphenyl)-1H-pyrazolo[4,3-d]pyrimidin-7-yl)amino)-4,5-dihydro-1H-benzo[b]azepin-2(3H)-one] | < 10 nM | 10 to 100 nM
CN1CCCc2ccc(Nc3nc(-c4cccs4)nc4cn[nH]c34)cc21 [Example #166, 1-methyl-N-(5-(thiophen-2-yl)-1H-pyrazolo[4,3-d]pyrimidin-7-yl)-1,2,3,4-tetrahydroquinolin-7-amine] | 10 to 100 nM | 10 to 100 nM
COc1ccc(-c2nc(Nc3ccc(N4CCS(=O)(=O)CC4)cc3)c3[nH]ncc3n2)cc1 [Example #169, 4-(4-((5-(4-methoxyphenyl)-1H-pyrazolo[4,3-d]pyrimidin-7-yl)amino)phenyl)thiomorpholine 1,1-dioxide] | < 10 nM | 100 to 1000 nM
COc1ccc(-c2nc(Nc3ccc(N4CCN(C(C)=O)CC4)cc3)c3[nH]ncc3n2)cc1 [Example #170, 1-(4-(4-((5-(4-methoxyphenyl)-1H-pyrazolo[4,3-d]pyrimidin-7-yl)amino)phenyl)piperazin-1-yl)ethan-1-one] | < 10 nM | 100 to 1000 nM
COc1ccc(-c2nc(Nc3ccc4c(c3)NC(=O)CO4)c3[nH]ncc3n2)cc1 [Example #171, 6-((5-(4-methoxyphenyl)-1H-pyrazolo[4,3-d]pyrimidin-7-yl)amino)-2H-benzo[b][1,4]oxazin-3(4H)-one] | 10 to 100 nM | 100 to 1000 nM
CC1(C)CNc2cc(Nc3nc(-c4cccs4)nc4cn[nH]c34)ccc2S1 [Example #173, 2,2-dimethyl-N-(5-(thiophen-2-yl)-1H-pyrazolo[4,3-d]pyrimidin-7-yl)-3,4-dihydro-2H-benzo[b][1,4]thiazin-6-amine] | 10 to 100 nM | 100 to 1000 nM
COc1ccc(Nc2nc(-c3cccc(S(N)(=O)=O)c3)nc3cn[nH]c23)cc1OC [Example #183, 3-(7-((3,4-dimethoxyphenyl)amino)-1H-pyrazolo[4,3-d]pyrimidin-5-yl)benzenesulfonamide] | < 10 nM | 10 to 100 nM
CC(=O)N1CCN(c2ccc(Nc3nc(-c4nccs4)nc4cn[nH]c34)cc2)CC1 [Example #184, 1-(4-(4-((5-(thiazol-2-yl)-1H-pyrazolo[4,3-d]pyrimidin-7-yl)amino)phenyl)piperazin-1-yl)ethan-1-one] | < 10 nM | 10 to 100 nM
COc1ccc(Nc2nc(-c3nccs3)nc3cn[nH]c23)cc1OC [Example #185, N-(3,4-dimethoxyphenyl)-5-(thiazol-2-yl)-1H-pyrazolo[4,3-d]pyrimidin-7-amine] | 10 to 100 nM | 10 to 100 nM
O=C1CCc2ccc(Nc3nc(-c4nccs4)nc4cn[nH]c34)cc2N1 [Example #186, 7-((5-(thiazol-2-yl)-1H-pyrazolo[4,3-d]pyrimidin-7-yl)amino)-3,4-dihydroquinolin-2(1H)-one] | < 10 nM | 100 to 1000 nM
COc1ccc(Nc2nc(-c3cccc(-c4nn[nH]n4)c3)nc3cn[nH]c23)cc1OC [Example #193, 5-(3-(2H-tetrazol-5-yl)phenyl)-N-(3,4-dimethoxyphenyl)-1H-pyrazolo[4,3-d]pyrimidin-7-amine] | < 10 nM | 100 to 1000 nM
COc1ccc(Nc2nc(-c3cccc(C(=O)O)c3)nc3cn[nH]c23)cc1OC [Example #194, 3-(7-((3,4-dimethoxyphenyl)amino)-1H-pyrazolo[4,3-d]pyrimidin-5-yl)benzoic acid] | < 10 nM | 100 to 1000 nM
O=C1CCc2ccc(Nc3nc(-c4cccc(C(=O)O)c4)nc4cn[nH]c34)cc2N1 [Example #195, 3-(7-((2-oxo-1,2,3,4-tetrahydroquinolin-7-yl)amino)-1H-pyrazolo[4,3-d]pyrimidin-5-yl)benzoic acid] | < 10 nM | 10 to 100 nM

— patent US9802937B2, “Substituted pyrazolo{4,3-D}pyrimidines as kinase inhibitors” (ORIGENIS GMBH, priority 2011, dated 2017)
